According to article PMC6886403, “Structure-Based and Molecular Modeling Studies for the Discovery of Cyclic Imides as Reversible Cruzain Inhibitors With Potent Anti-Trypanosoma cruzi Activity” (Frontiers in Chemistry, 2019):
Read-outs that look alike come from different tables or passages of the source.

Legend:
cruzain = target: T1, cruzain (Trypanosoma cruzi, UniProt P25779); assay: Cruzain inhibition assay (cleavage of fluorogenic substrate Z-Phe-Arg-AMC); type: biochemical; settings: for inhibition at 100 µM: at 100 μM inhibitor, mean of three measurements, read-out: Percent inhibition against cruzain; for IC50: mean ± SD of three individual experiments, at least six inhibitor concentrations in triplicate, 1.5 nM cruzain, 5.0 μM Z-Phe-Arg-AMC, pH 5.5
T1 construct: inferred from Ni-NTA purification of the pro-enzyme; made in house; host or cells: Escherichia coli (M15)
T1 sequence (P25779 123-337 limits assumed): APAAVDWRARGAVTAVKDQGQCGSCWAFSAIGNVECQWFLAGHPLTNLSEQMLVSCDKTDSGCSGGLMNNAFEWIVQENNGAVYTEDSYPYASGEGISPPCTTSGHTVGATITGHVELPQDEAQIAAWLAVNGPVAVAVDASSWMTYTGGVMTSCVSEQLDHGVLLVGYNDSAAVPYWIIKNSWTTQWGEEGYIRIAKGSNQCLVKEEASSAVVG
Protocol: The catalytic activity of cruzain was monitored by cleavage of the fluorogenic substrate Z-Phe-Arg-aminomethyl coumarin (Z-Phe-Arg-AMC) as previously described (Ferreira et al., [2014]). The enzyme kinetics assays were performed in 0.1 M sodium acetate buffer (pH 5.5) with 5 mM dithiothreitol (DTT) and 0.01% Triton X-100. […] The enzyme reaction was monitored for 5 min at 30°C in 96-well black flat bottom plates, and the activity was calculated based on the initial rates compared with a control (DMSO). Wavelengths of 355 nm for excitation and 460 nm for emission were used. IC50 values were independently determined by determining rate measurements for at least six inhibitor concentrations, each evaluated in triplicate. To determine the mechanism of inhibition, eight substrate concentrations and four inhibitor concentrations were used, each in triplicate. The mechanism of inhibition was determined by Lineweaver-Burk plots. SigmaPlot 10.0 (Systat Software Inc., Erkrath, Germany) was used to determine the IC50 values.

[1] = Cytotoxicity in HepG2 cells (MTS tetrazolium assay); type: cell-based; settings: human, HepG2 hepatocytes, mean ± SD of two independent assays
Protocol: (§1) The cytotoxicities of the compounds against HFF-1 fibroblasts and HepG2 hepatocytes were evaluated using the MTS tetrazolium assay (Promega, Madison, WI) (Barltrop et al., [1991]). HFF-1 fibroblasts were seeded at 2 × 10^3/well in 96-well culture plates in RPMI 1640 without phenol red supplemented with 10% FCS and incubated overnight (37°C, 5% CO2). HepG2 hepatocytes were seeded at 6 × 10^3/well in 96-well culture plates in DMEM (Cultilab, Campinas SP) supplemented with 10% FCS and incubated overnight (37°C, 5% CO2). The compounds were added in 3-fold serial dilutions, and the plates were incubated at 37°C with 5% CO2. Each compound concentration was evaluated in triplicate. All plates included doxorubicin (Sigma-Aldrich, St. Louis, MO) as a positive control and untreated wells (100% growth) as a negative control. After 72 h, 20 μL of MTS was added, and the plates were incubated for 4 h. The absorbance was measured at 490 nm in an automated microplate reader, and the data were transferred to SigmaPlot 10.0 (Systat Software Inc., Erkrath, Germany) for IC50 value calculation. The percent of nonviable cells was determined and compared to the negative control wells (100% growth).

[2] = tested on: T. cruzi intracellular amastigotes; assay: T. cruzi intracellular amastigote assay (Tulahuen lacZ strain, CPRG readout); type: cell-based, Trypanosoma cruzi; settings: for IC50: Trypanosoma cruzi, read-out: IC50 T. cruzi
Protocol: In vitro assays against T. cruzi were performed as described previously (Ferreira et al., [2014]). The T. cruzi Tulahuen strain, which expresses the E. coli β-galactosidase gene lacZ (Buckner et al., [1996]), was provided by Frederick S. Buckner (University of Washington, Seattle, WA). Stock solutions of the synthesized compounds were prepared in 100% DMSO. Epimastigotes were grown in liver infusion tryptone (LIT) supplemented with 10% fetal calf serum (FCS), penicillin and streptomycin (28°C). Metacyclogenesis from epimastigotes to trypomastigotes was induced by incubation of the epimastigotes in Grace's insect medium (Sigma-Aldrich, St. Louis, MO) supplemented with 10% FCS (28°C). HFF-1 human fibroblasts were seeded at 2 × 10^3/well (80 μL) in 96-well tissue culture plates in RPMI 1640 without phenol red supplemented with 10% FCS and incubated overnight (37°C, 5% CO2). Next, trypomastigotes were added at 1.0 × 10^4/well (20 μL), and the plates were incubated (37°C, 5% CO2). After 24 h, 3-fold serial dilutions (50 μL) of the synthesized compounds were added at concentrations ranging from 0.1 to 100 μM, and the plates were incubated (37°C, 5% CO2). Each compound concentration was evaluated in triplicate. All plates included BZ (Sigma-Aldrich) as a positive control and untreated wells (100% growth) as a negative control. After 120 h, 50 μL of chlorophenol red β-D-galactopyranoside (CPRG, Sigma-Aldrich) and IGEPAL CA-630 (Sigma-Aldrich) (0.1%) was added to each well. The absorbance was measured at 570 nm in an automated microplate reader, and the data were transferred to SigmaPlot 10.0 (Systat Software Inc.) for IC50 value calculation.

[3] = Cytotoxicity in HFF-1 cells (MTS tetrazolium assay); type: cell-based; settings: human, HFF-1 fibroblasts, mean ± SD of two independent assays
Protocol: as §1

[4] = set-up: method as in Pérez-Molina and Molina, 2018; settings: patients under treatment; ref Pérez-Molina and Molina, 2018; cited from earlier work
[5] = intracellular amastigotes, Tulahuen strain in HFF-1 fibroblasts, 120 h, mean ± SD of two experiments

Row | Compound | inhibition at 100 µM (cruzain) [%] | CC50 at 72 h [1] [µM] | IC50 [2, 5] [µM] | CC50 at 72 h [3] [µM] | IC50 (cruzain) [µM] | decrease in potency against cruzain relative to 3a (cruzain; less active than 3a) [fold] | increase in potency against cruzain (cruzain; 10f compared with 10c/10e) [fold] | increase in potency against cruzain relative to 3a (cruzain; more active than 3a) [fold] | trypanocidal activity relative to BZ ([2]; higher than that of BZ) [fold] | activity against T. cruzi (in words) ([2]; intracellular amastigotes) | IC50 ([2]; TULAHUEN, HFF-1, 120 h) [µM] | patients with severe adverse effects [4] | activity against cruzain (in words) (cruzain)
1 | CC(C)CC(C(=O)OCC(=O)Nc1ccc(N(C)C(=O)OC(C)(C)C)cc1)N1C(=O)C2CC=CCC2C1=O (centres unmarked) [3k] | 7 | > 64 | 3.9 ± 0.9 | > 100 |  |  |  |  |  |  |  |  | 
2 | COc1ccc(NC(=O)COC(=O)[C@H](CC(C)C)N2C(=O)C=CC2=O)cc1Cl [10c, 2-((3-chloro-4-methoxyphenyl)amino)-2-oxoethyl (S)-2-(2,5-dioxo-2,5-dihydro-1H-pyrrol-1-yl)-4-methylpentanoate] | 95 | 33 ± 5 | 0.9 ± 0.3 | 12 ± 1 | 2.3 ± 1 |  |  |  |  |  |  |  | 
3 | COc1ccc(NC(=O)COC(=O)[C@H](CC(C)C)N2C(=O)CCC2=O)cc1Cl [10d, 2-((3-chloro-4-methoxyphenyl)amino)-2-oxoethyl (S)-2-(2,5-dioxopyrrolidin-1-yl)-4-methylpentanoate] | 88 | > 64 | 18.5 ± 3.1 | > 100 | 12 ± 1 | 6 |  |  |  |  |  |  | 
4 | COc1ccc(NC(=O)COC(=O)[C@H](CC(C)C)N2C(=O)C=C(C)C2=O)cc1Cl [10e, 2-((3-chloro-4-methoxyphenyl)amino)-2-oxoethyl (S)-4-methyl-2-(3-methyl-2,5-dioxo-2,5-dihydro-1H-pyrrol-1-yl)pentanoate] | 94 | 5 ± 1 | 1.2 ± 0.3 | 4.8 ± 0.5 | 2.5 ± 0.6 |  |  |  |  |  |  |  | 
5 | COc1ccc(NC(=O)COC(=O)[C@H](CC(C)C)N2C(=O)C(Cl)=C(Cl)C2=O)cc1Cl [10f, 2-((3-chloro-4-methoxyphenyl)amino)-2-oxoethyl (S)-2-(3,4-dichloro-2,5-dioxo-2,5-dihydro-1H-pyrrol-1-yl)-4-methylpentanoate] | 100 | > 64 | 2 ± 0.7 | 33 ± 9 |  |  | 6 |  |  |  |  |  | 
6 | COc1ccc(NC(=O)COC(=O)[C@H](Cc2ccccc2)N2C(=O)C=CC2=O)cc1Cl [10j, 2-((3-chloro-4-methoxyphenyl)amino)-2-oxoethyl (S)-2-(2,5-dioxo-2,5-dihydro-1H-pyrrol-1-yl)-3-phenylpropanoate] | 97 | 67 ± 8 | 1 ± 0.3 | 15.7 ± 0.8 | 0.6 ± 0.1 |  |  | 4 | 3 |  |  |  | 
7 | COc1ccc(NC(=O)COC(=O)[C@H](CC(C)C)N2CCCCC2)cc1Cl [10l, 2-((3-chloro-4-methoxyphenyl)amino)-2-oxoethyl (S)-4-methyl-2-(piperidin-1-yl)pentanoate] | 10 | > 64 | 11.6 ± 2.4 | > 100 |  |  |  |  |  | moderately active |  |  | 
8 | COc1ccc(NC(=O)COC(=O)[C@H](CC(C)C)N2CCOCC2)cc1Cl [10m, 2-((3-chloro-4-methoxyphenyl)amino)-2-oxoethyl (S)-4-methyl-2-morpholinopentanoate] | 14 | > 64 | 1.8 ± 0.4 | > 100 |  |  |  |  |  | remarkably active |  |  | 
9 | COc1ccc(NC(=O)COC(=O)[C@H](CC(C)C)N2CCN(C(=O)OC(C)(C)C)CC2)cc1Cl [10n, tert-butyl (S)-4-(1-(2-((3-chloro-4-methoxyphenyl)amino)-2-oxoethoxy)-4-methyl-1-oxopentan-2-yl)piperazine-1-carboxylate] | 8 | 27 ± 2 | 1.6 ± 0.5 | 32 ± 5 |  |  |  |  |  | remarkably active |  |  | 
10 | COc1ccc(NC(=O)COC(=O)[C@H](CC(C)C)N2CCNCC2)cc1Cl.Cl [10o, 2-((3-chloro-4-methoxyphenyl)amino)-2-oxoethyl (S)-4-methyl-2-(piperazin-1-yl)pentanoate hydrochloride] | 35 | 52 ± 7 | 1.7 ± 0.5 | 32 ± 3 |  |  |  |  |  | remarkably active |  |  | 
11 | O=C(Cn1ccnc1[N+](=O)[O-])NCc1ccccc1 [BZ, benznidazole, reference compound] |  | > 64 |  | > 100 |  |  |  |  |  |  | 3 ± 0.6 | up to 40% | 
12 | COc1ccc(NCCOC(=O)C(CC(C)C)N2C(=O)C3CC=CCC3C2=O)cc1Cl (centres unmarked) [compound 7, 2-((3-chloro-4-methoxyphenyl)amino)ethyl 2-(1,3-dioxo-1,3,3a,4,7,7a-hexahydro-2H-isoindol-2-yl)-4-methylpentanoate] | 11 | 63 ± 8 | 1.5 ± 0.4 | > 100 |  |  |  |  |  | active |  |  | inactive
